This note sets out measurements from patent US20230416266A1, “6,7-DIHYDRO-PYRANO[2,3-d]PYRIMIDINE INHIBITORS OF KRAS G12C MUTANT” (Merck Sharp & Dohme Corp., priority 2020, published 2023).

Experiment [1] relates to phosphorylation of Erk in NCI-H358 cells. The experiment is described as follows: Cellular phospho-ERK assay. The format is cell-based. The following applies: 2 hour incubation, ratio of p-Erk vs total Erk, read-out: IC50 (nM) pERK (Cell). Here is the method:
NCI-H358 cells (ATCC® CRL-5807™) were cultured in T150 flask in growth medium (RPMI medium 1640-GlutaMAX™-I (ThermoFisher Scientific 61870) containing 10% fetal bovine serum (ThermoFisher Scientific 10091148)). The cells were harvested in growth medium after TrypLE (ThermoFisher scientific 12604021) digestion and were seeded in 384-well collagen coated cell culture plate (Corning 356702) at a density of 15,000 cells/well, and incubated at 37° C., 5% CO2 overnight. The compound dose-response titrations were prepared and appropriate amounts of compounds were dispensed in a 384-well intermediate plate using an Echo 550 liquid handler. RPMI medium 1640-GluiaMAX™-I were added to the intermediate plate and transferred to 384-well cell culture plate, which was incubated at 37° C., 5% CO2 for 2 hours. After removal of medium from the plate, cells were lysed in lysis buffer from Alpha SureFire® Ultra™ Multiplex p-Erk and total Erk assay kit (PerkinElmer MPSU-PIERK) containing Halt™ Protease and Phosphotase inhibitor cocktail (ThermoFisher Scientific 78446) at room temperature with constant shaking at 300 rpm for 30 minutes. The cell lysates were then transferred to OptiPlate-384 plate (PerkinElmer 6005620) and the phosphorylation of Erk and total Erk levels were detected by Alpha SureFire Ultra Multiplex p-Erk kit (PerkinElmer MPSU-PIERK) following the manufacturer's protocol. Assay plates were read on an EnVision Multimode Plate Reader (PerkinElmer), and the ratio of p-Erk vs total Erk in each well was used as the final readout. Dose response curves were analyzed using a 4-parameter logistic model to calculate IC50 values using spotfire software.

For experiment [2], the target named is T1, Biotinylated KRAS G12C protein (KRAS G12C/C51S/C80L/C118S, SEQ ID NO: 1) (Homo sapiens, UniProt P01116, C118S/C51S/C80L/G12C).
T1 construct: 183 amino acids; biotin on K10
The experiment can be described thus: SOS-catalyzed nucleotide exchange assay (TR-FRET). In kind it is biochemical. The conditions noted are these: in vitro apparent potency; preincubation time of 60 minutes prior to addition of SOS. Here is the method:
The SOS-catalyzed nucleotide exchange assay utilizes a preformed complex of recombinant biotinylated KRAS protein containing G12C/C51S/C80L/C118S mutations (183 amino acids; biotin on K10; leader sequence which is an AviTag; referred to as SEQ ID NO: 1 or “Biotinylated KRAS G12C protein” hereafter), Bodipy-GDP, and Terbium-streptavidin. Compounds are added to this complex and then after 60 minutes, the mixture is treated with recombinant SOS protein and unlabeled GTP. Small molecule inhibitors stabilize the Bodipy-GDP complex whereas the untreated protein rapidly exchanges Bodipy-GDP for unlabeled GTP resulting in reduced TR-FRET signal.
Biotinylated KRAS G12C protein (SEQ ID NO: 1) is diluted to 2 μM in an EDTA buffer (20 mM HEPES, 150 mM sodium chloride, 10 mM EDTA, and 0.01% Tween) and incubated at room temperature for one hour. This mixture is then further diluted to 90nM in an assay buffer (20 mM HEPES, 150 mM sodium chloride, 10 mM magnesium chloride, and 0.005% Tween) containing 15 nM of Terbium-Streptavidin (Invitrogen, catalog #PV3577) and 900 nM of Bodipy-GDP and incubated at room temperature for six hours. This solution is referred to as Biotinylated KRAS G12C mixture.
Each test compound (10 mM stock in DMSO) is diluted in DMSO to make a 10-point, 3-fold dilution series in a 384-well low dead volume microplate (Labcyte, catalog #LP-0200). Once titrations are made, 10 nL of the diluted compounds is acoustically dispensed into a 384-well plate (Corning, catalog #3820) using an Echo 550 (Labcyte).
Each well of the plate receives 3 μL Biotinylated KRAS G12C mixture that had been incubating for six hours and 3 μL of assay buffer using a BioRAPTR (Beckman Coulter) and is incubated at room temperature for 60 minutes. Each well then receives 3 μL of 240 nM recombinant human SOS protein and 9 mM GTP (Sigma, G8877) in assay buffer and is incubated at room temperature for 60 minutes.
The time-resolved fluorescence resonance energy transfer signal of the plate is measured on an Envision (PerkinElmer) plate reader: Excitation filter=340 nm; emission1=495 nm; emission2=520 nm; dichroic mirror=D400/D505; delay time=100 μs. The signal of each well is determined as the ratio of the emission at 520 nm to that at 495 nm. Percent effect of each well is determined after normalization to control wells containing DMSO (no effect) or a saturating concentration of inhibitor (max effect). The apparent effect as a function of compound concentration is fit to a four parameter logistic equation.
(Time-resolved FRET reads energy transfer from a long-lived donor to a nearby acceptor.)

Structures are written as SMILES. Read-outs that look alike come from different tables or passages of the source.

T1 sequence (P01116 with tags, fused parts or gaps isoform P01116-2 G12C/C51S/C80L/C118S): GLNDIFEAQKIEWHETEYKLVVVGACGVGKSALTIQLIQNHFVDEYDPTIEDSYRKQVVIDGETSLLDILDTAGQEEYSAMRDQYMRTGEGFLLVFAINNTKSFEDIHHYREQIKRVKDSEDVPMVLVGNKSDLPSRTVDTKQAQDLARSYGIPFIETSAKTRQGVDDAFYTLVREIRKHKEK

Broadly, the IC50 is the concentration that gives 50% inhibition. `C=CC(=O)N1CCN(c2nc(OC[C@@H]3CCCN3C)nc3c2CCC(c2cccc4cccc(C)c24)O3)C[C@@H]1CC#N` (mixture of isomers) [Compound 2, 2-((2S)-1-acryloyl-4-(7-(8-methylnaphthalen-1-yl)-2-(((S)-1-methylpyrrolidin-2-yl)methoxy)-6,7-dihydro-5H-pyrano[2,3-d]pyrimidin-4-yl)piperazin-2-yl)acetonitrile]: the IC50 is 501 nM in experiment [1] (Homo sapiens, NCI-H358, 2 h) and 17.5 nM in experiment [2].

For the compound `C=CC(=O)N1CCN(c2nc(OC[C@@H]3CCCN3C)nc3c2CCC(c2c(O)cccc2F)O3)C[C@@H]1CC#N` (mixture of isomers) [Compound 3, 2-((2S)-1-acryloyl-4-(7-(2-fluoro-6-hydroxyphenyl)-2-(((S)-1-methylpyrrolidin-2-yl)methoxy)-6,7-dihydro-5H-pyrano[2,3-d]pyrimidin-4-yl)piperazin-2-yl)acetonitrile], the IC50 in experiment [1] (Homo sapiens, NCI-H358, 2 h) was determined as 15700 nM; in experiment [2] it was 793 nM.

In the case of `C=CC(=O)N1CCN(c2nc(C(=O)N[C@H](C)CN(C)C)nc3c2CCC(c2cccc4ccccc24)O3)C[C@@H]1CC#N` (mixture of isomers) [Compound 11, 4-((S)-4-Acryloyl-3-(cyanomethyl)piperazin-1-yl)-N-((R)-1-(dimethylamino)propan-2-yl)-7-(naphthalen-1-yl)-6,7-dihydro-5H-pyrano[2,3-d]pyrimidine-2-carboxamide], the IC50 in experiment [1] (Homo sapiens, NCI-H358, 2 h) came out at 21700 nM; in experiment [2] it was 1410 nM.

Turning to `C=CC(=O)N1CCN(c2nc(OC[C@@H]3CCCN3C)nc3c2CCC(c2cccc4ccc5[nH]ncc5c24)O3)C[C@@H]1CC#N` (mixture of isomers) [Compound 12, 2-((2S)-4-(7-(3H-benzo[e]indazol-9-yl)-2-(((S)-1-methylpyrrolidin-2-yl)methoxy)-6,7-dihydro-5H-pyrano[2,3-d]pyrimidin-4-yl)-1-acryloylpiperazin-2-yl)acetonitrile], the IC50 came to 18500 nM in experiment [1] (Homo sapiens, NCI-H358, 2 h) and 87.1 nM in experiment [2].

For `C=CC(=O)N1CCN(c2nc(OC[C@@H]3CCCN3C)nc3c2CCC(c2cccc4ccccc24)O3)C[C@@H]1CC#N` (single isomer, unassigned) [Compound 1a], the figures for the IC50 in experiment [1] and in experiment [2] were 578 nM and 11.4 nM, respectively.

With `C=CC(=O)N1CCN(c2nc(OC[C@@H]3CCCN3C)nc3c2CCC(c2cccc4ccccc24)O3)C[C@@H]1CC#N` (single isomer, unassigned) [Compound 1b], the results for the IC50 in experiment [1] and in experiment [2] were 9020 nM and 395 nM, respectively.

On to `C=CC(=O)N1CCN(c2nc(OC[C@@H]3CCCN3C)nc3c2CCC(c2c(Cl)c(C)cc4[nH]ncc24)O3)C[C@@H]1CC#N` (single isomer, unassigned) [Compound 4a], for which the IC50 in experiment [1] (Homo sapiens, NCI-H358, 2 h) was determined as 19200 nM; in experiment [2], 104 nM.

As to `C=CC(=O)N1CCN(c2nc(OC[C@@H]3CCCN3C)nc3c2CCC(c2c(Cl)c(C)cc4[nH]ncc24)O3)C[C@@H]1CC#N` (single isomer, unassigned) [Compound 4b], the IC50 in experiment [1] is 30000 nM; in experiment [2], 2690 nM.

As to `C=CC(=O)N1CCN(c2nc(OC[C@@H]3CCCN3C)nc3c2CCC(c2cccc4c(F)cccc24)O3)C[C@@H]1CC#N` (single isomer, unassigned) [Compound 5a], the IC50 in experiment [1] (Homo sapiens, NCI-H358, 2 h) was determined as 6350 nM; in experiment [2] it was 88.6 nM.

For `C=CC(=O)N1CCN(c2nc(OC[C@@H]3CCCN3C)nc3c2CCC(c2cccc4c(F)cccc24)O3)C[C@@H]1CC#N` (single isomer, unassigned) [Compound 5b], the IC50 in experiment [1] came to 10300 nM; in experiment [2] it was 195 nM.

Turning to `C=CC(=O)N1CCN(c2nc(OC[C@@H]3CCCN3C)nc3c2CC(F)(F)C(c2cccc4ccccc24)O3)C[C@@H]1CC#N` (single isomer, unassigned) [Compound 7a], the IC50 was 394 nM in experiment [1] and 13.8 nM in experiment [2].

With `C=CC(=O)N1CCN(c2nc(OC[C@@H]3CCCN3C)nc3c2CC(F)(F)C(c2cccc4ccccc24)O3)C[C@@H]1CC#N` (single isomer, unassigned) [Compound 7b], the IC50 came to 2380 nM in experiment [1] and 84.8 nM in experiment [2].

With `C=CC(=O)N1CCN(c2nc(OC[C@@H]3CCCN3C)nc3c2CCC(c2cccc4cc(O)ccc24)O3)C[C@@H]1CC#N` (single isomer, unassigned) [Compound 8a], the IC50 is 26200 nM in experiment [1] (Homo sapiens, NCI-H358, 2 h) and 817 nM in experiment [2].

In the case of `C=CC(=O)N1CCN(c2nc(OC[C@@H]3CCCN3C)nc3c2CC(C)C(c2cccc4ccccc24)O3)C[C@@H]1CC#N` (single isomer, unassigned) [Compound 9a], the IC50 was determined as 13200 nM in experiment [1] and 259 nM in experiment [2].

Regarding `C=CC(=O)N1CCN(c2nc(OC[C@@H]3CCCN3C)nc3c2CC(C)C(c2cccc4ccccc24)O3)C[C@@H]1CC#N` (single isomer, unassigned) [Compound 9b], the IC50 in experiment [1] came out at 21300 nM; in experiment [2], 2130 nM.

Take `C=CC(=O)N1CCN(c2nc(OC[C@@H]3CCCN3C)nc3c2CC(C)C(c2cccc4ccccc24)O3)C[C@@H]1CC#N` (single isomer, unassigned) [Compound 10a]: the IC50 in experiment [1] is 704 nM; in experiment [2], 12.9 nM.

`C=CC(=O)N1CCN(c2nc(OC[C@@H]3CCCN3C)nc3c2CC(C)C(c2cccc4ccccc24)O3)C[C@@H]1CC#N` (single isomer, unassigned) [Compound 10b]: the IC50 was 5230 nM in experiment [1] and 153 nM in experiment [2].

On to `C=CC(=O)N1CCN(c2nc(OC[C@@H]3CCCN3C)nc3c2CCC(C)(c2cccc4ccccc24)O3)C[C@@H]1CC#N` (stereo partly drawn) [Compound 6, 2-((2S)-1-acryloyl-4-(7-methyl-2-(((S)-1-methylpyrrolidin-2-yl)methoxy)-7-(naphthalen-1-yl)-6,7-dihydro-5H-pyrano[2,3-d]pyrimidin-4-yl)piperazin-2-yl)acetonitrile], for which the IC50 in experiment [1] (Homo sapiens, NCI-H358, 2 h) was 24100 nM; in experiment [2], 632 nM.
